Source: EP2063887B1, “NEW SMALL MOLECULE INHIBITORS OF MDM2 AND THE USES THEREOF” (priority 2006, dated 2008)
Where “and” joins values, the source holds several entries; their conditions need not be identical. Identical values can stand only once. Like-named read-outs stand apart in the source and are kept apart here.

Columns and labels:
[1] = tested on: HCT116 p53KO; test: Cell growth inhibition (WST-8), HCT116 p53KO; type: cell-based;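 note: cells in 96-well plates exposed to compound for 4 days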
Protocol: (§1) Cells were seeded in 96-well flat bottom cell culture plates at a density of 3-4x 10^3 cells/well and incubated in the presence of compounds for 4 days.

[2] = tested on: HCT116 p53WT; test: Cell growth inhibition (WST-8), HCT116 p53WT; type: cell-based; conditions: individual determinations and mean ± SD lines;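 note: compound exposure of the cells lasted 4 days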
Protocol: as §1

[3] = tested on: PC-3 (p53 null); test: Cell growth inhibition (WST-8, 4 days), PC3; type: cell-based, human;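 note: PC-3 is a human prostate cancer line, cultured with test compound throughout the 4-day growth assay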
Protocol: (§2) To test these predictions, a cell growth assay was developed using human prostate cancer LNCaP (p53 wild-type) and PC-3 (p53 null) cell lines. The toxic effects of compounds of the invention were tested.
as §1

[4] = tested on: LNCaP (p53 wild-type); test: Cell growth inhibition (WST-8, 4 days), LNCaP; type: cell-based, human;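 note: LNCaP human prostate cancer cells exposed to compound for 4 days, with inhibition of cell growth as the measured effect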
Protocol: as §2, §1

[5] = target: MDM2 protein (Homo sapiens, UniProt Q00987); test: MDM2 binding assay, competition with tracer F-6 (IC50 and calculated Ki); conditions: MDM2 [10 nM]; F-6 [1 nM]; individual determinations, values not in parentheses
Sequence of MDM2 protein (Q00987 whole entry, species assumed): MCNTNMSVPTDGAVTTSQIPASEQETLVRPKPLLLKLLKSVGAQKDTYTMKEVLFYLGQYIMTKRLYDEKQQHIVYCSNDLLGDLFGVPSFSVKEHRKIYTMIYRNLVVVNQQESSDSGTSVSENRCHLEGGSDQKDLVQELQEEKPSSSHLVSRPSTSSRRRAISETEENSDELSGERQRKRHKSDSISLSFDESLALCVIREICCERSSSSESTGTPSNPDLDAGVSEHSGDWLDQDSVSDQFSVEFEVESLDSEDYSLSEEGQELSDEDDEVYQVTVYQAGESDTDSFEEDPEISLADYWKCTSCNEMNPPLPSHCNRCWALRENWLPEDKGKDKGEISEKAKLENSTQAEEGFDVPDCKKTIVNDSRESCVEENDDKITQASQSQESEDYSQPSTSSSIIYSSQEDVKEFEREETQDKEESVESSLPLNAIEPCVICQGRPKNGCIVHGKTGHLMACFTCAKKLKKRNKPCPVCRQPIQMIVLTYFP

[6] = HCT116 p53KO, individual determinations and mean ± SD lines, read-out: HCT116 p53KO IC50
[7] = HCT116 p53WT, read-out: HCT116 p53WT IC50
[8] = PC3, p53 null, individual determinations and mean ± SD lines, read-out: PC3 IC50
[9] = individual determinations and mean ± SD lines, read-out: LNCaP IC50
[10] = read-out: HCT116 p53KO IC50, HCT116 p53KO, individual determinations and mean ± SD lines
[11] = read-out: HCT116 p53WT IC50, HCT116 p53WT
[12] = read-out: PC3 IC50, PC3, p53 null, individual determinations and mean ± SD lines
[13] = read-out: LNCaP IC50, individual determinations and mean ± SD lines
[14] = Homo sapiens, 96 h, PC3, p53 null, individual determinations and mean ± SD lines, read-out: PC3 IC50
[15] = Homo sapiens, 96 h, individual determinations and mean ± SD lines, read-out: LNCaP IC50
[16] = Homo sapiens, HCT-116, HCT116 p53KO, individual determinations and mean ± SD lines, read-out: HCT116 p53KO IC50
[17] = Homo sapiens, HCT-116, HCT116 p53WT, read-out: HCT116 p53WT IC50
[18] = Homo sapiens, HCT-116, read-out: HCT116 p53WT IC50 (µM), HCT116 p53WT

Row | Molecule | IC50 [1, 6] | IC50 [2, 7] | IC50 [3, 8] | IC50 [4, 9] | also measured
1 | CC(C)(C)C[C@H]1N[C@@H](C(=O)NCCc2ncc[nH]2)[C@H](c2cccc(Cl)c2)[C@@]12C(=O)Nc1cc(Cl)c(F)cc12 [MI-319-21] | 13.2 µM | 3.88 µM | 14.1 µM | 1.84 µM | –
2 | CC(C)(C)C[C@H]1N[C@@H](C(=O)NCCNC(=N)N)[C@H](c2ccc(F)c(Cl)c2)[C@@]12C(=O)Nc1cc(Cl)c(F)cc12 [MI-319-20, 6-CHLORO-4'-(3-CHLORO-4-FLUOROPHENYL)-2'-(2,2-DIMETHYL-PROPYL)-5-FLUORO-2-OXO-1,2-DIHYDRO-SPIRO[INDOLE-3,3'-PYRROLIDINE]-5'-CARBOXYLIC ACID (2-GUANIDINO-ETHYL)-AMIDE] | – | – | – | – | IC50 [1, 10]: > 100 µM; IC50 [2, 11]: > 30 µM and 93.5 µM; IC50 [3, 12]: > 30 µM and 66.1 µM
3 | CC(=O)N1[C@@H](C(=O)NCC[C@H](O)CO)[C@H](c2ccc(F)c(Cl)c2)[C@@]2(C(=O)Nc3cc(Cl)c(F)cc32)[C@H]1CC(C)(C)C [MI-319-13, 1'-ACETYL-6-CHLORO-4'-(3-CHLORO-4-FLUOROPHENYL)-2'-(2,2-DIMETHYLPROPYL)-5-FLUORO-2-OXO-1,2-DIHYDRO-SPIRO[INDOLE-3,3'-PYRROLIDINE]-5'-CARBOXYLIC ACID (3,4-DIHYDROXY-BUTYL)-AMIDE] | – | – | – | – | IC50 [2, 11]: 3.23 µM and 6.37 µM and 11 µM and 6.85 µM; IC50 [4, 13]: 3.66 µM and 2.32 µM and 4.85 µM and 3.6 µM
4 | 6-CHLORO-4'-(3-CHLORO-4-FLUOROPHENYL)-2'-(2,2-DIMETHYL-PROPYL)-5-FLUORO-2-OXO-1'-OXY-1,2,4',5'-TETRAHYDRO-SPIRO[INDOLE-3,3'-PYRROLE]-5'-CARBOXYLIC ACID (3,4-DIHYDROXY-BUTYL)-AMIDE [MI-319-14] | > 30 µM | 8.01 µM and 9.27 µM and 5.74 µM and 7.67 µM | 40.1 µM and 40.2 µM and > 30 µM | – | IC50 [5]: 2.04 µM and 1.66 µM
5 | O=C(NCC[C@H](O)CO)[C@@H]1N[C@H](C2CCCCC2)[C@]2(C(=O)Nc3cc(Cl)c(F)cc32)[C@H]1c1ccc(F)c(Cl)c1 [MDM2-319-4, 6-CHLORO-4'-(3-CHLORO-4-FLUOROPHENYL)-2'-CYCLOHEXYL-5-FLUORO-2-OXO-1,2-DIHYDRO-SPIRO[INDOLE-3,3'-PYRROLIDINE]-5'-CARBOXYLIC ACID (3,4-DIHYDROXY-BUTYL)-AMIDE] | 13.1 µM and 26.5 µM and 13.4 µM and 17.6 µM | 5.03 µM and 5.8 µM and 2.41 µM and 4.41 µM | 23.4 µM and 25.6 µM and 22.5 µM | 1.29 µM and 0.89 µM and 1.21 µM | IC50 [3, 14]: 18.5 µM; IC50 [4, 15]: 1.42 µM
6 | O=C(NCC[C@H](O)CO)[C@@H]1N[C@H](CC2CCCC2)[C@]2(C(=O)Nc3cc(Cl)c(F)cc32)[C@H]1c1ccc(F)c(Cl)c1 [MDM2-319-1, 6-CHLORO-4'-(3-CHLORO-4-FLUOROPHENYL)-2'-CYCLOPENTYLMETHYL-5-FLUORO-2-OXO-1,2-DIHYDRO-SPIRO[INDOLE-3,3'-PYRROLIDINE]-5'-CARBOXYLIC ACID (3,4-DIHYDROXY-BUTYL)-AMIDE] | 10.4 µM | 1.36 µM | – | 0.36 µM | IC50 [1, 16]: 12.7 µM; IC50 [2, 17]: 0.908 µM; IC50 [4, 15]: 0.261 µM
7 | O=C(NCC[C@H](O)CO)[C@@H]1N[C@H](C2CCCC2)[C@]2(C(=O)Nc3cc(Cl)c(F)cc32)[C@H]1c1ccc(F)c(Cl)c1 [MI-319-8, 6-CHLORO-4'-(3-CHLORO-4-FLUOROPHENYL)-2'-CYCLOPENTYL-5-FLUORO-2-OXO-1,2-DIHYDRO-SPIRO[INDOLE-3,3'-PYRROLIDINE]-5'-CARBOXYLIC ACID (3,4-DIHYDROXY-BUTYL)-AMIDE] | 25.5 µM and 22.7 µM and 26.3 µM | 4.73 µM and 2.74 µM and 3.86 µM | 20.7 µM and 18.4 µM and 23.3 µM | 0.963 µM and 0.893 µM and 0.662 µM and 1.46 µM | IC50 [1, 16]: 30.9 µM; IC50 [2, 17]: 4.11 µM; IC50 [3, 14]: 30.7 µM
8 | CC(C)(C)C[C@H]1N[C@@H](C(=O)NCC[C@H](O)CO)[C@H](c2ccc(F)c(Cl)c2)[C@@]12C(=O)Nc1cc(Cl)c(F)cc12 [MDM2-319, (2'R,3S,3"S,4'R,5'R) 6-CHLORO-4'-(3-CHLORO-4-FLUORO-PHENYL)-2'-(2,2-DIMETHYL-PROPYL)-5-FLUORO-2-OXO-1,2-DIHYDRO-SPIRO[INDOLE-3,3'-PYRROLIDINE]-5'-CARBOXYLIC ACID (3,4-DIHYDROXY-BUTYL)-AMIDE] | – | 0.717 µM and 0.615 µM and 0.247 µM and 0.52 µM | – | 0.274 µM and 0.184 µM and 0.229 µM | IC50 ([1]; read-out: HCT116 p53KO IC50): 11.8 µM and 12.2 µM and 14.2 µM
9 | CC(C)(C)C[C@H]1N[C@@H](C(=O)NCCn2ccnc2)[C@H](c2ccc(F)c(Cl)c2)[C@@]12C(=O)Nc1cc(Cl)c(F)cc12 [MI-319-17, 6-CHLORO-4'-(3-CHLORO-4-FLUOROPHENYL)-2'-(2,2-DIMETHYL-PROPYL)-5-FLUORO-2-OXO-1,2-DIHYDRO-SPIRO[INDOLE-3,3'-PYRROLIDINE]-5'-CARBOXYLIC ACID (2-IMIDAZOL-1-YL-ETHYL)-AMIDE] | 22.3 µM and 25.1 µM | 3.79 µM and 3.15 µM | 22 µM and 23.6 µM | 1.55 µM and 1.51 µM | IC50 [1, 16]: 25.1 µM; IC50 [2, 17]: 2.1 µM; IC50 [3, 14]: 14 µM; IC50 [4, 15]: 1.1 µM
10 | CC(C)(C)C[C@H]1N[C@@H](C(=O)NC[C@H](O)[C@H](O)CO)[C@H](c2ccc(F)c(Cl)c2)[C@@]12C(=O)Nc1cc(Cl)c(F)cc12 [MI-319-19, 6-CHLORO-4'-(3-CHLORO-4-FLUOROPHENYL)-2'-(2,2-DIMETHYL-PROPYL)-5-FLUORO-2-OXO-1,2-DIHYDRO-SPIRO[INDOLE-3,3'-PYRROLIDINE]-5'-CARBOXYLIC ACID (2,3,4-TRIHYDROXY-BUTYL)-AMIDE] | > 30 µM and 77.6 µM | 2.68 µM and 5.98 µM and 4.6 µM | > 30 µM and 41.6 µM | 2.4 µM and 1.2 µM | IC50 [3, 14]: 30.7 µM; IC50 [4, 15]: 1.24 µM
11 | COC(C)(C)C[C@H]1N[C@@H](C(=O)NCC[C@H](O)CO)[C@H](c2ccc(F)c(Cl)c2)[C@@]12C(=O)Nc1cc(Cl)c(F)cc12 [MI-319-7] | – | 7.95 µM | 34.3 µM | 1.92 µM | –
12 | CC(C)(C)C[C@H]1N[C@@H](C(=O)NCCC2CCC(O)C2)[C@H](c2ccc(F)c(Cl)c2)[C@@]12C(=O)Nc1cc(Cl)c(F)cc12 (single isomer, unassigned) [MDM2-319-6, 6-CHLORO-4'-(3-CHLORO-4-FLUOROPHENYL)-2'-(2,2-DIMETHYL-PROPYL)-5-FLUORO-2-OXO-1,2-DIHYDRO-SPIRO[INDOLE-3,3'-PYRROLIDINE]-5'-CARBOXYLIC ACID [2-(3-HYDROXY-CYCLOPENTYL)-ETHYL)-AMIDE] | – | – | – | – | IC50 ([1]; Homo sapiens, HCT-116, read-out: HCT116 p53KO IC50 (µM), HCT116 p53KO, individual determinations and mean ± SD lines): 14.3 µM; IC50 [1, 10]: 16.1 µM and 14.6 µM and 15 µM; IC50 [2, 18]: 5.45 µM; IC50 [2, 11]: 7.41 µM and 5.96 µM and 6.26 µM; IC50 ([3]; Homo sapiens, 96 h, read-out: PC3 IC50 (µM), PC3, p53 null, individual determinations and mean ± SD lines): 21.4 µM; IC50 [3, 12]: 20.8 µM and 14.2 µM and 18.7 µM; IC50 [4, 13]: 2.58 µM and 1.22 µM and 1.93 µM and 1.91 µM
13 | CC(C)(C)C[C@H]1N[C@@H](C(=O)NCCC2CCC(O)C2)[C@H](c2ccc(F)c(Cl)c2)[C@@]12C(=O)Nc1cc(Cl)c(F)cc12 (stereo partly shown) [MDM2-319-5] | 5.39 µM and 8.4 µM and 8.1 µM | 1.29 µM and 1.5 µM and 1.23 µM | 5.55 µM and 8.71 µM and 7.91 µM | 0.465 µM and 0.634 µM and 0.56 µM | –
14 | CN1CCN(C(=O)[C@@H]2N[C@H](CC(C)(C)C)[C@]3(C(=O)Nc4cc(Cl)c(F)cc43)[C@H]2c2ccc(F)c(Cl)c2)CC1 [MI-319-9] | – | – | – | – | IC50 [1, 10]: 9.71 µM and 8.19 µM and 4.52 µM and 7.47 µM; IC50 [2, 18]: 7.48 µM; IC50 [2, 11]: 9.2 µM and 4.63 µM and 7.1 µM; IC50 [4, 13]: 5 µM and 2.46 µM
